Assay results taken from patent publication US10857258B2, “Adhesive peptide and use therefor” (SEWON BIOTECHNOLOGY INC., priority 2015, dated 2020).
“Also recorded” adds a separate entry of the source. Residues, ends and D or L forms follow the SMILES beside them.

What was measured:
osteoblast MC3TC-E1 = assay: Safety in osteoblasts; type: cell-based, Mouse; details: 0.1 μM, 1 μM, 10 μM and 100 μM
Protocol: The safety of the present peptides was determined using osteoblast MC3TC-E1. Osteoblasts were treated with A7-1 peptide as prepared in Example 1 at the concentration of 0.1 μM, 1 μM, 10 μM and 100 μM. Then the effect of the present peptide on the proliferation (FIG. 8A), viability (FIG. 8B) and differentiation (FIG. 8C) on the cells was examined. For testing the effect on the […], MC3T3-E1 and C2C12 cell lines were treated with BMP (rhBMP2, 10 ng/ml for 3 days) and differentiation medium for bone formation for 6 days to induce differentiation. The results were examined by cell staining. It is observed that the present peptide has no effect on the proliferation rate, viability rate or whether or not the cells are differentiated.

[1] = test system: anchorage dependent cells MC3T3-E1; assay: Comparative experiment with soluble RGDS, CCK-8; type: cell-based, Mouse; details: RGDS 0, 10, 100 and 1000 μM
Protocol: The present peptide A7-1(10 μM) or A7-1 together with soluble RGDS peptide (0, 10, 100 and 1000 μM) for competition assay were added to anchorage dependent cells MC3T3-E1 in a test tube and incubated for 10 min. Then the cells were transferred to a culture plate and incubated for 10 min in a thermostatic incubator to allow the cells to attach. After 10 min, the medium was removed and the cells were washed 2 times with PBS to remove any unattached cells and a fresh medium without the peptide and CCK-8 (Dojindo) were added to the cells and incubated for 1 hr in a thermostatic incubator. Then the absorbance was measured at 450 nm. The medium mixed with CCK-8 only was used as a blank.

CC(C)C[C@H](NC(=O)[C@H](CCC(N)=O)NC(=O)[C@@H](N)CCCNC(=N)N)C(=O)N[C@H](C(=O)N[C@H](C(=O)N[C@@H](CCCCN)C(=O)N[C@@H](Cc1ccccc1)C(=O)N[C@@H](CCCNC(=N)N)C(=O)N[C@@H](C)C(=O)N[C@@H](CC(C)C)C(=O)N1CCC[C@H]1C(=O)N[C@@H](CS)C(=O)O)C(C)C)C(C)C [A7-1, RQLVVKFRALPC] (H-RQLVVKFRALPC-OH)
effect on differentiation (osteoblast MC3TC-E1): no effect | effect on proliferation rate (osteoblast MC3TC-E1): no effect | effect on viability rate (osteoblast MC3TC-E1): no effect

RGDS
cell adhesiveness with RGDS in the absence of A7-1 [1]: decreased in a concentration dependent manner; also recorded: significantly reduces the adhesiveness
